Reference: patent US6914045B2, “Glycopeptide antibiotics” (Wyeth Holdings Corporation, priority 2001, dated 2005)
Converted amounts (≈) assume the structure as drawn.

Columns and labels:
Experiment in all cases: in vitro antibacterial evaluation, MIC by broth dilution
Format in all cases: cell-based
Enterococcus sp. = details: broth dilution, 18 hours at 35° C.
Method in brief: (§1)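 Read-out: the lowest concentration at which the test strain fails to grow. Serial dilutions (64-0.06 μg/mL) in Muller-Hinton II […], 5×10^5 CFU/mL inoculum, NCCLS M7-A2 procedure.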

Escherichia coli = details: 18 hours at 35° C.
Method in brief: as §1

Staphylococcus sp. = details: broth dilution, 18 hours at 35° C.
Method in brief: as §1

CC(c1ccccc1)C1NC(=O)CNC(=O)C(CO)NC(=O)C(C(O)C2CNC(=N)N2C2OC(CO)C(O)C(O)C2O)NC(=O)C(C(O)C2CNC(=N)N2)NC(=O)C(Cc2ccc(OC3OC(CO)C(OC4OC(COC(=O)CCC5CCCC5)C(O)C(O)C4O)C(O)C3O)cc2)NC1=O (stereo not shown) [Example 100c]
MIC Enterococcus faecalis (ATCC 29212) (Enterococcus sp.; Enterococcus faecalis (ATCC 29212)): 4 µg/mL (≈ 2.82 µM)
MIC Enterococcus faecalis (GC 2242) (Enterococcus sp.; Enterococcus faecalis (GC 2242)): 2 µg/mL (≈ 1.41 µM)
MIC Enterococcus faecalis (GC 4552) (Enterococcus sp.; Enterococcus faecalis (GC 4552)): 4 µg/mL (≈ 2.82 µM)
MIC Enterococcus faecalis (ATCC 29212) (Enterococcus sp.; strain ATCC 29212): 4 µg/mL (≈ 2.82 µM)
MIC Enterococcus faecalis (GC 2242) (Enterococcus sp.; strain GC 2242): 2 µg/mL (≈ 1.41 µM)
MIC Enterococcus faecalis (GC 4552) (Enterococcus sp.; strain GC 4552): 4 µg/mL (≈ 2.82 µM)
MIC Escherichia coli (GC 4559) (Escherichia coli; strain GC 4559): 32 µg/mL (≈ 22.5 µM)
MIC Escherichia coli (GC 4560) (Escherichia coli; strain GC 4560): 0.5 µg/mL (≈ 0.352 µM)
MIC Coagulase Negative Staphylococcus (GC 4537) (Staphylococcus sp.): 1 µg/mL (≈ 0.704 µM)
MIC Coagulase Negative Staphylococcus (GC 4538) (Staphylococcus sp.): 1 µg/mL (≈ 0.704 µM)
MIC Coagulase Negative Staphylococcus (GC 4547) (Staphylococcus sp.): 1 µg/mL (≈ 0.704 µM)
MIC Staphylococcus aureus (ATCC 29213) (Staphylococcus sp.): 1 µg/mL (≈ 0.704 µM)
MIC Staphylococcus aureus (GC 1131) (Staphylococcus sp.): 1 µg/mL (≈ 0.704 µM)
MIC Staphylococcus aureus (GC 4535) (Staphylococcus sp.): 1 µg/mL (≈ 0.704 µM)
MIC Staphylococcus aureus-SMITH (GC 4536) (Staphylococcus sp.): 1 µg/mL (≈ 0.704 µM)
MIC Coagulase Negative Staphylococcus (GC 4537) (Staphylococcus sp.; strain GC 4537): 1 µg/mL (≈ 0.704 µM)
MIC Coagulase Negative Staphylococcus (GC 4538) (Staphylococcus sp.; strain GC 4538): 1 µg/mL (≈ 0.704 µM)
MIC Coagulase Negative Staphylococcus (GC 4547) (Staphylococcus sp.; strain GC 4547): 1 µg/mL (≈ 0.704 µM)
MIC Staphylococcus aureus (ATCC 29213) (Staphylococcus sp.; strain ATCC 29213): 1 µg/mL (≈ 0.704 µM)
MIC Staphylococcus aureus (GC 1131) (Staphylococcus sp.; strain GC 1131): 1 µg/mL (≈ 0.704 µM)
MIC Staphylococcus aureus (GC 4535) (Staphylococcus sp.; strain GC 4535): 1 µg/mL (≈ 0.704 µM)
MIC Staphylococcus aureus-SMITH (GC 4536) (Staphylococcus sp.; strain GC 4536): 1 µg/mL (≈ 0.704 µM)
